Assay results published in US20130085133A1, “ANTI-VIRAL TREATMENT AND ASSAY TO SCREENFOR ANTI-VIRAL AGENT” (Sourthern Research Institute Office of Commercialization …, priority 2010, published 2013).

Legend:
[1] = test system: respiratory syncytial virus (RSV) strain Long; experiment: microbe, parasite or virus in culture; conditions: human respiratory syncytial virus, HEp-2, 144 h
Protocol: The assay measures RSV virus-induced CPE in HEp-2 cells using cell viability as the end point.
Two vials of RSV (strain Long) containing 1×10^7 pfu/mL was thawed using an Eppendorf thermomixer for 13 min at 15° C., with shaking at 350 rpm. […] The cells were incubated for 18-20 h at 37° C., 5% CO2, 90% relative humidity. The medium was aspirated and the cells washed with 10 mL PBS without Mg^2+ or Ca^2+. Cells were harvested from flasks using 0.25% trypsin-EDTA. The cells were resuspended in a freezing medium of 95% fetal calf serum and 5% DMSO to a final cell density of 2×10^6 cells/mL. One mL aliquots of this virus infected cell suspension were dispensed to cryovials and cells were rate frozen to −80° C. Frozen infected cells were then transferred to −150° C. for long term storage.
Test compounds were evaluated by measuring their antiviral activity, cell toxicity, and selectivity. Test compounds were serially diluted in a plate to plate matrix or “stacked plate” matrix. All 320 compounds in a source plate were diluted together resulting in a 10 point dose response dilution series. It was visualized as a serial dilution series proceeding vertically through a stack of plates with the high dose plate on top and the low dose plate on the bottom.
Cells were harvested and resuspended to 80,000 cells per ml in Complete DMEM/F12.
Cells were thawed in a room temperature water bath with gentle agitation. The tube was inverted 5-10. Cells were diluted to 80,000 cells per ml by adding the contents of the vial to 24 ml of cold (4° C.) media.
Twenty five ul of uninfected HEp-2 cells were plated in the cell control wells. Frozen infected cells were combined with uninfected HEp-2 cells at a 1:100 ratio. Twenty five ul of the cell mixture was added to the virus control and compound wells. All cell plating was conducted using a Matrix WellMate and cells were maintained at room temperature with stirring during the plating process. The assay plates were incubated for six days at 37° C., 5% CO2 and 90% relative humidity.
Following the six day incubation period, the assay plates were equilibrated to room temperature for 30 min and an equal volume (30 μL) of Cell Titer-Glo reagent (Promega Inc.) was added to each well using a WellMate (Matrix, Hudson, N.H.) and plates were incubated for an additional 10 min at room temperature. At the end of the incubation, luminescence was measured using a Perkin Elmer Envision™ multi-label reader (PerkinElmer, Wellesley, Mass.) with an integration time of 0.1 s.
Data was analyzed using ActivityBase software (IDBS, Inc, Guilford, UK). thirty two control wells containing cells only and twenty four wells containing cells and virus were included on each assay plate and used to calculate Z′ value for each plate and to normalize the data on a per plate basis. […] Eight ribavirin positive control wells were included on each plate for quality control purposes, but were not used in Z′ calculations. […] In the toxicity assay, results are described as percent viability and the calculation is the same.
An EC50 (for CPE inhibition) and IC50 (for cell viability) were calculated for each substance using the 4 parameter Levenburg-Marquardt algorithm with parameter A locked at 0 and parameter B locked at 100. Standard deviation, normalized chi2 and hill slope were used to evaluate the curves. Values were not extrapolated beyond the tested range of concentrations.

[2] = cytotoxicity assay (percent viability of HEp-2 cells, Cell Titer-Glo); conditions: human

Structure (SMILES) | EC50 [1] | CC50 at 6 days ([2]; HEp-2 cells) | CC50 at 6 days [2] [µg/mL]
CC(=O)c1cccc(NC(=S)NNC(=S)Nc2ccc(F)cc2F)c1 [AB00349666] | 21.2 µg/mL | > 25 µg/mL | 
Nc1ccc2oc(-c3cc(F)c(F)cc3Cl)nc2c1 [AB00311411] | 22.7 µg/mL | > 25 µg/mL | 
C=CCNc1cc(N2CCN(C(=O)c3ccc(Cl)cc3)CC2)ccc1[N+](=O)[O-] [AB00315446] | 12 µg/mL | > 25 µg/mL | 
COc1ccccc1OCC(=O)Nc1ccc(Br)cc1C(=O)O [AB00290004] | 23.2 µg/mL | > 25 µg/mL | 
COc1cc([N+](=O)[O-])ccc1NC(=O)C1CC(Cl)=CCC1C(=O)O (stereo not shown) [AB00296680] | 12.9 µg/mL | > 25 µg/mL | 
CCn1c(=O)n(CC)c2cc(NC(=O)c3ccccc3Cl)c(Br)cc21 [AB00369510] | 10.4 µg/mL | > 25 µg/mL | 
O=c1c2c([nH]c3ccccc13)-c1ccccc1-n1c(nc3ccccc3c1=O)C2 [AB00700560] | 11.3 µM | > 50 µM | 
O=C(c1cccc(OC(F)F)c1)N1CCc2cc([N+](=O)[O-])ccc21 [AB00764110] | 41.5 µM | > 50 µM | 
Fc1cccc(COc2ccc(C(=S)N3CCOCC3)cc2)c1 [AB00293926] | 10.8 µg/mL | > 25 µg/mL | 
COC(=O)c1c(-c2ccc(C)c(C)c2)csc1NC(=O)CCCC(=O)O [AB00309859] | 6.84 µg/mL | > 25 µg/mL | 
CSc1ccc(Cl)c(C(=O)Nc2ccc(N3CCCCC3)cc2)c1 [AB00717474] | 12.2 µM | > 50 µM | 
COc1ccc(NC(=O)c2ccc(C)c(S(=O)(=O)Nc3ccccc3C)c2)cc1OC [AB00364640] | 11.5 µg/mL | > 25 µg/mL | 
CC(=O)CCc1c(C)nc2ccc(Br)cc2c1S [AB00279343] | 20.7 µg/mL | > 25 µg/mL | 
Cc1ccc(-c2csc3ncn(Cc4cc(=O)oc5cc(Br)ccc45)c(=O)c23)cc1 [AB00785889] | 23.4 µM | > 50 µM | 
Cc1cccc(NC(=O)COC(=O)c2ccc(F)cc2N)c1C [AB00756405] | 11.5 µM | > 50 µM | 
CC(Oc1ccc(-c2ccccc2)cc1)C(=O)Nc1nnc(C2CCCO2)s1 (stereo not shown) [AB00365647] | 19.3 µg/mL | > 25 µg/mL | 
CCOc1ccccc1OCCOCCOc1cccc2cccnc12 [AB00289145] | 24.2 µg/mL | > 25 µg/mL | 
N#C/C(=C\c1ccc(-c2ccc(Cl)c(Cl)c2)o1)C(N)=S [AB00344427] | 17.9 µg/mL | > 25 µg/mL | 
Cc1cc(C)cc(OCC(=O)N2CCc3ccccc3C2)c1 [AB00315731] | 21.1 µg/mL | > 25 µg/mL | 
Nc1c(N=Nc2ccc(-c3ccc(N=Nc4cc(S(=O)(=O)O)c5ccccc5c4N)cc3)cc2)cc(S(=O)(=O)O)c2ccccc12 [AB00443629] | 35.6 µM | > 50 µM | 
Cc1ccccc1C(=O)NC(=S)Nc1cccc(F)c1 [AB00319373] | 24.4 µg/mL | > 25 µg/mL | 
Cc1ccc(S(=O)(=O)NC(C(=O)Oc2ccc3c(c2)oc(=O)c2ccccc23)c2ccccc2)cc1 (stereo not shown) [AB00297982] | 11 µg/mL | > 25 µg/mL | 
Cc1cc(C)cc(OCC(O)CNC(C)c2ccccc2)c1 (stereo not shown) [AB00283699] | 12.9 µg/mL | > 25 µg/mL | 
O=c1cnnc(N/N=C/c2ccccc2Br)[nH]1 [AB00283422] | 15.8 µg/mL | > 25 µg/mL | 
S=C(c1ccc(OCc2cccc3ccccc23)cc1)N1CCOCC1 [AB00362891] | 23.4 µg/mL | > 25 µg/mL | 

Structure (SMILES) | EC50 [1] | CC50 at 6 days ([2]; HEp-2 cells) | CC50 at 6 days [2] [µg/mL]
Cc1ccc2c(Cn3cnc4scc(-c5ccc(Br)cc5)c4c3=O)cc(=O)oc2c1 [AB00796961] | 31.9 µM | > 50 µM | 
CCOC(=O)C1=C(C)Nc2ncnn2C1c1ccc(OC)c(OCC)c1 (stereo not shown) [AB00335740] | 21.1 µg/mL | > 25 µg/mL | 
Cc1cc(SCCC#N)nc2ccccc12 [AB00371866] | 13.7 µg/mL | > 25 µg/mL | 
Cc1noc(C)c1S(=O)(=O)N1CCN(Cc2ccccc2C#N)CC1 [AB00785032] | 46.5 µM | > 50 µM | 
CC(=O)Nc1ccc(C(=O)OCc2ccc(C(C)=O)cc2)cc1 [AB00359127] | 18.9 µg/mL | > 25 µg/mL | 
Cc1ccnc(NCc2cc(Br)ccc2O)c1 [AB00318952] | 22.2 µg/mL | > 25 µg/mL | 
O=C(c1ccc(O)cc1O)c1ccc(O)cc1O [AB00275918] | 20.5 µg/mL | > 25 µg/mL | 
COc1ccc(S(=O)(=O)N2CCC(C(=O)N3CCN(c4ccccc4)CC3)CC2)cc1Cl [AB00362388] | 17 µg/mL | > 25 µg/mL | 
c1ccc(-c2cc3c(N4CCN(c5ccccc5)CC4)ncnc3s2)cc1 [AB00306917] | 17.3 µg/mL | > 25 µg/mL | 
C=CCNC(=O)COc1ccc(Br)cc1C [AB00299924] | 22.4 µg/mL | > 25 µg/mL | 
COC(=O)C1=C(C)N(Cc2ccccc2)C(=O)NC1c1ccc(C(=O)OC)cc1 (stereo not shown) [AB00318401] | 2.39 µg/mL | > 25 µg/mL | 
COc1ccc(-c2cc(C(=O)O)c3cc(Br)ccc3n2)c(OC)c1 [AB00313218] | 22.2 µg/mL | > 25 µg/mL | 
O=C(Nc1ccc(F)c(Cl)c1)C1CCN(C(=O)c2ccc(Cl)cc2)CC1 [AB00299386] | 12.3 µg/mL | > 25 µg/mL | 
Fc1cccc(NC(=S)NNC(=S)Nc2ccc(Cl)cc2)c1 [AB00348154] | 10.6 µg/mL | > 25 µg/mL | 
NC(=O)CC1Nc2ccccc2NC1=O (stereo not shown) [AB00294484] | 16.4 µg/mL | > 25 µg/mL | 
CNC(=O)Nc1ccccc1C(=O)Nc1ccc(C)cc1 [AB00290142] | 19.4 µg/mL | > 25 µg/mL | 
O=S1(=O)N=C(Nc2ccc3c4c(cccc24)CC3)c2ccccc21 [AB00304418] | 10.7 µg/mL | > 25 µg/mL | 
CC1=CC(C)(C)Nc2ccc(OC(=O)C(Cc3ccccc3)N3C(=O)C4CCCCC4C3=O)cc21 (stereo not shown) [AB00299290] | 15.8 µg/mL | > 25 µg/mL | 
CCn1c(COc2ccccc2OC)nc2ccccc21 [AB00296345] | 18.9 µg/mL | > 25 µg/mL | 
N#CCCCCN1c2cccc3cccc(c23)S1(=O)=O [AB00373143] | 14.3 µg/mL | > 25 µg/mL | 
CC(Oc1ccc(Cl)cc1Cl)C(=O)Nc1ccc(F)c(F)c1 (stereo not shown) [AB00314248] | 23.8 µg/mL | > 25 µg/mL | 
NC(=O)c1ncn([C@@H]2O[C@H](CO)[C@@H](O)[C@H]2O)n1 [AB00430481] | 38.8 µM | > 50 µM | 
COc1ccc(-c2nc(CSc3nnc(C4CC4)n3C3CC3)cs2)cc1 [AB00747970] | 10.8 µM | > 50 µM | 
CC(C)(C)c1ccc(C(=O)N2CCC(C(=O)Nc3ccccc3Cl)CC2)cc1 [AB00317604] | 23.7 µg/mL | > 25 µg/mL | 
Cc1ccccc1C(=O)Nc1sc2c(c1C(=O)N1CCN(Cc3ccccc3)CC1)CCCCC2 [AB00284323] | 17.5 µg/mL | > 25 µg/mL | 

Structure (SMILES) | EC50 [1] | CC50 at 6 days ([2]; HEp-2 cells) | CC50 at 6 days [2] [µg/mL]
Cc1ccc(C)n1-c1ccc(C(=O)O)cc1 [AB00275199] | 13 µg/mL | > 25 µg/mL | 
CNc1ncnc2c1ncn2[C@@H]1C[C@H](CO)[C@H](O)[C@@H]1O [SRI-4711] | 24.5 µM | > 50 µM | 
COc1ccc(NC(=O)CN2c3cccc4cccc(c34)S2(=O)=O)c(OC)c1 [AB00293237] | 10.3 µg/mL | > 25 µg/mL | 
O=C(O)c1ccc(-c2cccc(Cl)c2Cl)o1 [AB00287600] | 12.7 µg/mL | > 25 µg/mL | 
O=C(COc1ccc(Cl)c(Cl)c1)Nc1cccc(C(=O)NC2CC2)c1 [AB00784993] | 12 µM | > 50 µM | 
COc1ccc(C(=O)N2CCC(C(=O)Nc3cccc(C(F)(F)F)c3)CC2)cc1 [AB00298665] | 12.1 µg/mL | > 25 µg/mL | 
CN(C)C(=O)Oc1ccc2ccccc2c1Cl [AB00339302] | 12.3 µg/mL |  | > 25
O=C(C1CCN(S(=O)(=O)c2ccccc2)CC1)N1CCc2ccccc2C1 [AB00298862] | 20.4 µg/mL | > 25 µg/mL | 
COC(=O)Nc1ccc2ccccc2c1 [AB00314279] | 23.5 µg/mL | > 25 µg/mL | 
CCN(c1ccccc1)S(=O)(=O)c1cccc(C(=O)Nc2nccs2)c1 [AB00739796] | 22.2 µM | > 50 µM | 
C=CCn1c(SC(C)C(=O)Nc2cc(C(F)(F)F)ccc2Cl)nnc1-c1ccccc1OC (stereo not shown) [AB00741842] | 26.7 µM | > 50 µM | 
C/C(N)=C(/C#N)C(=O)CSc1nc2sc3c(c2c(=O)n1-c1ccccc1C(F)(F)F)CCCCC3 [AB00728757] | 18.1 µM | > 50 µM | 
c1coc(-c2nn3c(Cn4nnc5ccccc54)nnc3s2)c1 [AB00370063] | 1.97 µg/mL | > 25 µg/mL | 
CC(=O)c1ccc2c3c(ccc(O)c13)CC2 [AB00293238] | 11.4 µg/mL | > 25 µg/mL | 
Cc1nc(N)sc1-c1csc(Nc2ccccn2)n1 [AB00280085] | 18.9 µg/mL | > 25 µg/mL | 
Fc1cnc(N2CCOCC2)nc1N1CCc2ccccc21 [AB00362810] | 21.1 µg/mL | > 25 µg/mL | 
Cc1ccc(S(=O)(=O)NC2CCCC(C(=O)Oc3ccc4c(c3)oc(=O)c3ccccc34)C2)cc1 (stereo not shown) [AB00297971] | 19.2 µg/mL | > 25 µg/mL | 
Cc1ccc2c(ccc3nc(C)ccc32)n1 [AB00278348] | 12.6 µg/mL | > 25 µg/mL | 
COc1ccc(C(=O)NCCc2cccc(Cl)c2)c(OC)c1 [AB00310156] | 10.4 µg/mL | > 25 µg/mL | 
CCCCSc1nc(=O)c(C(c2ccccc2)c2ccccc2)c(O)[nH]1 [AB00291408] | 24.2 µg/mL | > 25 µg/mL | 
CCCCC(=O)Nc1cccc(NC(=O)c2ccc(OCC)c([N+](=O)[O-])c2)c1 [AB00318606] | 23.5 µg/mL | > 25 µg/mL | 
CCOC(=O)c1ccccc1NC(=O)c1cc(S(=O)(=O)N(CC)c2ccccc2)ccc1Cl [AB00718457] | 23.8 µM | > 50 µM | 
COc1ccc(-n2nnnc2SCCO)cc1 [AB00364099] | 19.2 µg/mL | > 25 µg/mL | 
CCOC(=O)c1ccc(NC(=O)NC(C)C2CCCO2)cc1 (stereo not shown) [AB00349705] | 19.2 µg/mL | > 25 µg/mL | 
